Measurements reported in the supplement of paper PMC10307832.

Legend:
Assay in all cases: relative viability (nuclei count vs DMSO), 5 days (fraction); higher = more cells survive
MK-8033 + Vorinostat = compound: Cn1cc(-c2cnc3ccc4ccc(CS(=O)(=O)NCc5ccccn5)cc4c(=O)c3c2)cn1 [MK-8033] + O=C(CCCCCCC(=O)Nc1ccccc1)NO [Vorinostat] (partner 1 µM)
Summary of the method: (§1)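 Lung cancer cell lines in 1536-well plates got either a single drug or a fixed anchor-drug dose together with five library-drug doses (not always all listed) in √10 steps, by pin tool, on the day after seeding. Nuclei were counted after 5 days, and relative viability is the treated-to-vehicle ratio of nuclei counts. Values are medians of duplicate plates.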

Irinotecan + Tozasertib = compound: CCc1c2c(nc3ccc(OC(=O)N4CCC(N5CCCCC5)CC4)cc13)-c1cc3c(c(=O)n1C2)COC(=O)[C@]3(O)CC [Irinotecan] + Cc1cc(Nc2cc(N3CCN(C)CC3)nc(Sc3ccc(NC(=O)C4CC4)cc3)n2)n[nH]1 [Tozasertib] (partner 0.1 µM)
Summary of the method: as §1

RU-SKI 43 + OSI-027 = compound: CC[C@@H](C)CNCC(=O)N1CCC2=C([C@@H]1COC3=CC=CC(=C3)C)C=CS2 [RU-SKI 43] + COc1cccc2cc(-c3nc([C@H]4CC[C@H](C(=O)O)CC4)n4ncnc(N)c34)[nH]c12 [OSI-027] (partner 0.5 µM)
Summary of the method: as §1

MK-8033 + Crizotinib = compound: Cn1cc(-c2cnc3ccc4ccc(CS(=O)(=O)NCc5ccccn5)cc4c(=O)c3c2)cn1 [MK-8033] + C[C@@H](Oc1cc(-c2cnn(C3CCNCC3)c2)cnc1N)c1c(Cl)ccc(F)c1Cl [Crizotinib] (partner 1 µM)
Summary of the method: as §1

## NCI-H2228
MK-8033 + Vorinostat; first compound 0.02 µM
  relative viability: 0.594
MK-8033 + Vorinostat; first compound 0.06325 µM
  relative viability: 0.562
MK-8033 + Vorinostat; first compound 0.2 µM
  relative viability: 0.417
MK-8033 + Vorinostat; first compound 0.6325 µM
  relative viability: 0.696
MK-8033 + Vorinostat; first compound 2 µM
  relative viability: 0.821
Irinotecan + Tozasertib; first compound 0.6325 µM
  relative viability: 0.259
Irinotecan + Tozasertib; first compound 2 µM
  relative viability: 0.31
Irinotecan + Tozasertib; first compound 6.325 µM
  relative viability: 0.348
Irinotecan + Tozasertib; first compound 20 µM
  relative viability: 0.287
RU-SKI 43 + OSI-027; first compound 0.1 µM
  relative viability: 0.651
RU-SKI 43 + OSI-027; first compound 0.3162 µM
  relative viability: 0.722
RU-SKI 43 + OSI-027; first compound 1 µM
  relative viability: 0.483
RU-SKI 43 + OSI-027; first compound 3.162 µM
  relative viability: 0.689
RU-SKI 43 + OSI-027; first compound 10 µM
  relative viability: 0.471
MK-8033 + Crizotinib; first compound 0.02 µM
  relative viability: 0.373
MK-8033 + Crizotinib; first compound 0.06325 µM
  relative viability: 0.372
MK-8033 + Crizotinib; first compound 0.2 µM
  relative viability: 0.508
MK-8033 + Crizotinib; first compound 0.6325 µM
  relative viability: 0.387
MK-8033 + Crizotinib; first compound 2 µM
  relative viability: 0.362

## LK-2
MK-8033 + Vorinostat; first compound 0.02 µM
  relative viability: 0.245
MK-8033 + Vorinostat; first compound 0.06325 µM
  relative viability: 0.259
MK-8033 + Vorinostat; first compound 0.2 µM
  relative viability: 0.397
MK-8033 + Vorinostat; first compound 0.6325 µM
  relative viability: 0.307
MK-8033 + Vorinostat; first compound 2 µM
  relative viability: 0.357
Irinotecan + Tozasertib; first compound 0.6325 µM
  relative viability: 0.183
Irinotecan + Tozasertib; first compound 2 µM
  relative viability: 0.192
Irinotecan + Tozasertib; first compound 6.325 µM
  relative viability: 0.287
Irinotecan + Tozasertib; first compound 20 µM
  relative viability: 0.352
RU-SKI 43 + OSI-027; first compound 0.1 µM
  relative viability: 0.182
RU-SKI 43 + OSI-027; first compound 0.3162 µM
  relative viability: 0.169
RU-SKI 43 + OSI-027; first compound 1 µM
  relative viability: 0.227
RU-SKI 43 + OSI-027; first compound 3.162 µM
  relative viability: 0.177
RU-SKI 43 + OSI-027; first compound 10 µM
  relative viability: 0.183
MK-8033 + Crizotinib; first compound 0.02 µM
  relative viability: 0.228
MK-8033 + Crizotinib; first compound 0.06325 µM
  relative viability: 0.226
MK-8033 + Crizotinib; first compound 0.2 µM
  relative viability: 0.244
MK-8033 + Crizotinib; first compound 0.6325 µM
  relative viability: 0.23
MK-8033 + Crizotinib; first compound 2 µM
  relative viability: 0.25

## LC-2-ad
MK-8033 + Vorinostat; first compound 0.02 µM
  relative viability: 0.786
MK-8033 + Vorinostat; first compound 0.06325 µM
  relative viability: 0.651
MK-8033 + Vorinostat; first compound 0.2 µM
  relative viability: 0.618
MK-8033 + Vorinostat; first compound 0.6325 µM
  relative viability: 0.75
MK-8033 + Vorinostat; first compound 2 µM
  relative viability: 0.659
Irinotecan + Tozasertib; first compound 0.6325 µM
  relative viability: 0.439
Irinotecan + Tozasertib; first compound 2 µM
  relative viability: 0.437
Irinotecan + Tozasertib; first compound 6.325 µM
  relative viability: 0.343
Irinotecan + Tozasertib; first compound 20 µM
  relative viability: 0.233
RU-SKI 43 + OSI-027; first compound 0.1 µM
  relative viability: 0.733
RU-SKI 43 + OSI-027; first compound 0.3162 µM
  relative viability: 0.821
RU-SKI 43 + OSI-027; first compound 1 µM
  relative viability: 1.04
RU-SKI 43 + OSI-027; first compound 3.162 µM
  relative viability: 0.979
RU-SKI 43 + OSI-027; first compound 10 µM
  relative viability: 0.789
MK-8033 + Crizotinib; first compound 0.02 µM
  relative viability: 0.423
MK-8033 + Crizotinib; first compound 0.06325 µM
  relative viability: 0.347
MK-8033 + Crizotinib; first compound 0.2 µM
  relative viability: 0.393
MK-8033 + Crizotinib; first compound 0.6325 µM
  relative viability: 0.447
MK-8033 + Crizotinib; first compound 2 µM
  relative viability: 0.445

## NCI-H596
MK-8033 + Vorinostat; first compound 0.02 µM
  relative viability: 0.59
MK-8033 + Vorinostat; first compound 0.06325 µM
  relative viability: 0.629
MK-8033 + Vorinostat; first compound 0.2 µM
  relative viability: 0.549
MK-8033 + Vorinostat; first compound 0.6325 µM
  relative viability: 0.64
MK-8033 + Vorinostat; first compound 2 µM
  relative viability: 0.568
Irinotecan + Tozasertib; first compound 0.6325 µM
  relative viability: 0.798
Irinotecan + Tozasertib; first compound 2 µM
  relative viability: 0.878
Irinotecan + Tozasertib; first compound 6.325 µM
  relative viability: 0.632
Irinotecan + Tozasertib; first compound 20 µM
  relative viability: 0.624
RU-SKI 43 + OSI-027; first compound 0.1 µM
  relative viability: 0.823
RU-SKI 43 + OSI-027; first compound 0.3162 µM
  relative viability: 0.729
RU-SKI 43 + OSI-027; first compound 1 µM
  relative viability: 0.871
RU-SKI 43 + OSI-027; first compound 3.162 µM
  relative viability: 0.764
RU-SKI 43 + OSI-027; first compound 10 µM
  relative viability: 0.607
MK-8033 + Crizotinib; first compound 0.02 µM
  relative viability: 0.913
MK-8033 + Crizotinib; first compound 0.06325 µM
  relative viability: 0.941
MK-8033 + Crizotinib; first compound 0.2 µM
  relative viability: 0.921
MK-8033 + Crizotinib; first compound 0.6325 µM
  relative viability: 0.991
MK-8033 + Crizotinib; first compound 2 µM
  relative viability: 1.01

## LCLC-97TM1
MK-8033 + Vorinostat; first compound 0.02 µM
  relative viability: 0.662
MK-8033 + Vorinostat; first compound 0.06325 µM
  relative viability: 0.48
MK-8033 + Vorinostat; first compound 0.6325 µM
  relative viability: 0.825
MK-8033 + Vorinostat; first compound 2 µM
  relative viability: 0.761
Irinotecan + Tozasertib; first compound 0.6325 µM
  relative viability: 0.14
Irinotecan + Tozasertib; first compound 2 µM
  relative viability: 0.176
Irinotecan + Tozasertib; first compound 6.325 µM
  relative viability: 0.125
Irinotecan + Tozasertib; first compound 20 µM
  relative viability: 0.113
RU-SKI 43 + OSI-027; first compound 0.1 µM
  relative viability: 0.486
RU-SKI 43 + OSI-027; first compound 0.3162 µM
  relative viability: 0.551
RU-SKI 43 + OSI-027; first compound 1 µM
  relative viability: 0.627
RU-SKI 43 + OSI-027; first compound 3.162 µM
  relative viability: 0.496
RU-SKI 43 + OSI-027; first compound 10 µM
  relative viability: 0.485
MK-8033 + Crizotinib; first compound 0.02 µM
  relative viability: 0.393
MK-8033 + Crizotinib; first compound 0.06325 µM
  relative viability: 0.261
MK-8033 + Crizotinib; first compound 0.2 µM
  relative viability: 0.508
MK-8033 + Crizotinib; first compound 0.6325 µM
  relative viability: 0.383
MK-8033 + Crizotinib; first compound 2 µM
  relative viability: 0.379

## SK-LU-1
MK-8033 + Vorinostat; first compound 0.02 µM
  relative viability: 0.829
MK-8033 + Vorinostat; first compound 0.06325 µM
  relative viability: 0.897
MK-8033 + Vorinostat; first compound 0.2 µM
  relative viability: 0.704
MK-8033 + Vorinostat; first compound 0.6325 µM
  relative viability: 0.778
MK-8033 + Vorinostat; first compound 2 µM
  relative viability: 0.685
Irinotecan + Tozasertib; first compound 0.6325 µM
  relative viability: 0.315
Irinotecan + Tozasertib; first compound 2 µM
  relative viability: 0.295
Irinotecan + Tozasertib; first compound 6.325 µM
  relative viability: 0.26
Irinotecan + Tozasertib; first compound 20 µM
  relative viability: 0.285
RU-SKI 43 + OSI-027; first compound 0.1 µM
  relative viability: 0.324
RU-SKI 43 + OSI-027; first compound 0.3162 µM
  relative viability: 0.375
RU-SKI 43 + OSI-027; first compound 1 µM
  relative viability: 0.342
RU-SKI 43 + OSI-027; first compound 3.162 µM
  relative viability: 0.361
RU-SKI 43 + OSI-027; first compound 10 µM
  relative viability: 0.317
MK-8033 + Crizotinib; first compound 0.02 µM
  relative viability: 0.873
MK-8033 + Crizotinib; first compound 0.06325 µM
  relative viability: 0.874
MK-8033 + Crizotinib; first compound 0.2 µM
  relative viability: 0.8
MK-8033 + Crizotinib; first compound 0.6325 µM
  relative viability: 0.835
MK-8033 + Crizotinib; first compound 2 µM
  relative viability: 1.02

## COR-L23
MK-8033 + Vorinostat; first compound 0.02 µM
  relative viability: 0.423
MK-8033 + Vorinostat; first compound 0.06325 µM
  relative viability: 0.408
MK-8033 + Vorinostat; first compound 0.2 µM
  relative viability: 0.385
MK-8033 + Vorinostat; first compound 0.6325 µM
  relative viability: 0.459
MK-8033 + Vorinostat; first compound 2 µM
  relative viability: 0.491
Irinotecan + Tozasertib; first compound 0.6325 µM
  relative viability: 0.161
Irinotecan + Tozasertib; first compound 2 µM
  relative viability: 0.225
Irinotecan + Tozasertib; first compound 6.325 µM
  relative viability: 0.176
Irinotecan + Tozasertib; first compound 20 µM
  relative viability: 0.105
RU-SKI 43 + OSI-027; first compound 0.1 µM
  relative viability: 0.718
RU-SKI 43 + OSI-027; first compound 0.3162 µM
  relative viability: 0.99
RU-SKI 43 + OSI-027; first compound 1 µM
  relative viability: 0.865
RU-SKI 43 + OSI-027; first compound 3.162 µM
  relative viability: 0.881
RU-SKI 43 + OSI-027; first compound 10 µM
  relative viability: 0.614
MK-8033 + Crizotinib; first compound 0.02 µM
  relative viability: 0.58
MK-8033 + Crizotinib; first compound 0.06325 µM
  relative viability: 0.721
MK-8033 + Crizotinib; first compound 0.2 µM
  relative viability: 0.489
MK-8033 + Crizotinib; first compound 0.6325 µM
  relative viability: 0.73
MK-8033 + Crizotinib; first compound 2 µM
  relative viability: 0.506

## NCI-H2126
MK-8033 + Vorinostat; first compound 0.02 µM
  relative viability: 0.671
MK-8033 + Vorinostat; first compound 0.06325 µM
  relative viability: 0.554
MK-8033 + Vorinostat; first compound 0.2 µM
  relative viability: 0.72
MK-8033 + Vorinostat; first compound 0.6325 µM
  relative viability: 0.798
MK-8033 + Vorinostat; first compound 2 µM
  relative viability: 0.822
Irinotecan + Tozasertib; first compound 2 µM
  relative viability: 0.813
Irinotecan + Tozasertib; first compound 6.325 µM
  relative viability: 0.46
Irinotecan + Tozasertib; first compound 20 µM
  relative viability: 0.206
RU-SKI 43 + OSI-027; first compound 0.1 µM
  relative viability: 0.681
RU-SKI 43 + OSI-027; first compound 0.3162 µM
  relative viability: 0.627
RU-SKI 43 + OSI-027; first compound 1 µM
  relative viability: 0.777
RU-SKI 43 + OSI-027; first compound 3.162 µM
  relative viability: 0.678
RU-SKI 43 + OSI-027; first compound 10 µM
  relative viability: 0.715
MK-8033 + Crizotinib; first compound 0.02 µM
  relative viability: 1.04
MK-8033 + Crizotinib; first compound 0.06325 µM
  relative viability: 0.927
MK-8033 + Crizotinib; first compound 0.2 µM
  relative viability: 0.973
MK-8033 + Crizotinib; first compound 0.6325 µM
  relative viability: 0.976
MK-8033 + Crizotinib; first compound 2 µM
  relative viability: 0.951
